Data taken from US20220378923A1, “BET DEGRADER” (KYOWA KIRIN CO., LTD., priority 2019, published 2022).

What was measured:
Type in all cases: cell-based
Conditions in all cases: SU-DHL-4 cells, test compound 100 nmol/L, 24 hours
BRD2 = biological target: T1, BRD2 (Homo sapiens, UniProt P25440); assay: Evaluation of BET proteolysis in SU-DHL-4 cell line by Western blotting: BRD2 (Test Example 4)
T1 construct: Changes in the amount of BRD4, BRD2 and BRD3 proteins in the SU-DHL-4 cell line; endogenous in cells; host or cells: SU-DHL-4
Description: (§1) The human DLBCL cell line SU-DHL-4 was purchased from DSMZ. SU-DHL-4 was passaged using RPMI1640 medium containing 10 vol % FBS. The culture conditions were 37° C. and 5% CO2.
Anti-BRD2 antibody: Brd2 (D8964) Rabbit mAb (Cell Signaling Technology, Cat No. #5848S)
(§2) Changes in the amount of BRD4, BRD2 and BRD3 proteins in the SU-DHL-4 cell line by the test compound (compound 1b, compound 1l or compound P3) were detected by WB. The compound P3 is a compound described as example 14 in the known Patent Document 2 (WO 2015/081284), which was synthesized according to the method described in Patent Document 2 and used in this test.
(§3) The cultured SU-DHL-4 cells were seeded at 6×10^5 cells/well in a transparent 6-well plate (Code No. 140675, Thermo Fisher Scientific). After seeding, the cells were pre-cultured at 37° C. in a carbon dioxide gas incubator for 18 to 25 hours. Next, a 0.1 mmol/L DMSO solution of the test compound was prepared, diluted so that the concentration was 200-fold of the final concentration in RPMI1640 medium containing the above FBS and PS, and 1/200 volume of the diluted solution was added to each well. At this time, the final concentration of DMSO was adjusted to be 0.1 vol %. After adding the test compound, the cells were cultured at 37° C. in a carbon dioxide gas incubator for 24 hours.
(§4) After collecting the cells, the supernatant was aspirated, and Lysis buffer 6 (R&D systems, Cat No. 895561) was added to the pellet at 0.1 mL/sample. After incubating on ice for 60 minutes, the supernatant was collected by centrifugation at 15000 rpm for 10 minutes at 4° C.
(§5) Using Pierce BCA Protein Assay Kit (Thermo Fisher, Cat No. 23225), the protein concentration of each sample was quantified according to the manual attached to the kit, and then was diluted and prepared with Lane Marker Reducing Sample Buffer (5×) (Thermo Fisher, Cat No. 39000) and Lysis buffer 6 to 1 mg/mL. The cells were incubated at 95° C. for 5 minutes to prepare WB samples. WB samples were stored at −30° C. until electrophoresis.
(§6) The WB sample was thawed and used after vortex mixing and spin down. […]

BRD3 = biological target: T2, BRD3 (Homo sapiens, UniProt Q15059); assay: Evaluation of BET proteolysis in SU-DHL-4 cell line by Western blotting: BRD3 (Test Example 4)
T2 construct: Changes in the amount of BRD4, BRD2 and BRD3 proteins in the SU-DHL-4 cell line; endogenous in cells; host or cells: SU-DHL-4
Description: as §1
Anti-BRD3 antibody: Anti-BRD3 antibody (2088C3a) (Santa Cruz Biotechnology, Cat No. sc-81202)
as §2, §3, §4, §5, §6

BRD4 = biological target: T3, BRD4 (Homo sapiens, UniProt O60885); assay: Evaluation of BET proteolysis in SU-DHL-4 cell line by Western blotting: BRD4 (Test Example 4)
T3 construct: Changes in the amount of BRD4, BRD2 and BRD3 proteins in the SU-DHL-4 cell line; endogenous in cells; host or cells: SU-DHL-4
Description: as §1
Anti-BRD4 antibody: BRD4 (E2A7X) Rabbit mAb (Cell Signaling Technology, Cat No. #13440S)
as §2, §3, §4, §5, §6

T1 sequence (P25440 whole entry): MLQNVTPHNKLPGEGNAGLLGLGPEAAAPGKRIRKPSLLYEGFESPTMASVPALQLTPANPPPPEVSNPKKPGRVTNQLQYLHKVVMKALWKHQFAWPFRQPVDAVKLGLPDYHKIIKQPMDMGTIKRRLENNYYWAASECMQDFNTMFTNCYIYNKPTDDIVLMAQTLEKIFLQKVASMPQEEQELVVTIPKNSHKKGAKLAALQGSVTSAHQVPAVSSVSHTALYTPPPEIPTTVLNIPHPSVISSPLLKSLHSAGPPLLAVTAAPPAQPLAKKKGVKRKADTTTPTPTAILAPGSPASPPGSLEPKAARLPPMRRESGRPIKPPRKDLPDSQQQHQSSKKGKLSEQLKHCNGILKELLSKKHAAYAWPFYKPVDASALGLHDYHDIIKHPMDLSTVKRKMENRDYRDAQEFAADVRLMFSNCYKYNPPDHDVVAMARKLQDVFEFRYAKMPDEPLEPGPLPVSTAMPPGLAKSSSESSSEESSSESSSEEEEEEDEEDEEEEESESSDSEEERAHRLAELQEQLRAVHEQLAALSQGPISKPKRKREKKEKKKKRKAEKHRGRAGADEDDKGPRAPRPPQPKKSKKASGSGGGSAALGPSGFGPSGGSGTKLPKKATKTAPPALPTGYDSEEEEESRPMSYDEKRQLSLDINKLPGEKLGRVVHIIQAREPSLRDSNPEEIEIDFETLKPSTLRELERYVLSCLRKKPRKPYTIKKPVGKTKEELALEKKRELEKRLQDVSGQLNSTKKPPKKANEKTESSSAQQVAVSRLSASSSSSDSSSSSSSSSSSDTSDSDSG
T2 sequence (Q15059 whole entry): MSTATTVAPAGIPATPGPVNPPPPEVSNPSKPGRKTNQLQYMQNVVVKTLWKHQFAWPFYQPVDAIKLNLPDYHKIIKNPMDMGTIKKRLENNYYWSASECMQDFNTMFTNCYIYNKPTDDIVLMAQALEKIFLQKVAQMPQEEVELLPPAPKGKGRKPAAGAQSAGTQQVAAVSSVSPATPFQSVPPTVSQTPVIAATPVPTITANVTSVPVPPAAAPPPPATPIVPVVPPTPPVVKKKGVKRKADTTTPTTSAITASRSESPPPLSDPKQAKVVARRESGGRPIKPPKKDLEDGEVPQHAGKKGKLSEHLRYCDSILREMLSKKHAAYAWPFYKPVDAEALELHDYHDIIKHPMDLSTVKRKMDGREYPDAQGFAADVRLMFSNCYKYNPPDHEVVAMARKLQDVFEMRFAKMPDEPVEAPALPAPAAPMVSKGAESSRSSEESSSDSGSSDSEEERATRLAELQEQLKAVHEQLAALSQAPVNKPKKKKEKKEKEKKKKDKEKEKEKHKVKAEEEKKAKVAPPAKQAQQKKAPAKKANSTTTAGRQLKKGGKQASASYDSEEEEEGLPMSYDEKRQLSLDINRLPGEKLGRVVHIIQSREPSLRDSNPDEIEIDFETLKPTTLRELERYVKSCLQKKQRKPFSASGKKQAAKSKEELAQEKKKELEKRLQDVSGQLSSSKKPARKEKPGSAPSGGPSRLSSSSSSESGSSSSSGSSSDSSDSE

For `CCNC(=O)C[C@@H]1N=C(c2ccc(SCCCCSc3ccc(C4=N[C@@H](CC(=O)NCC)c5nnc(C)n5-c5ccc(OC)cc54)cc3)cc2)c2cc(OC)ccc2-n2c(C)nnc21` [Compound P3, 2,2′-((4S,4'S)-6,6′-((butane-1,4-diylbis(sulfanediyl))bis(4,1-phenylene))bis(8-methoxy-1-methyl-4H-benzo[f][1,2,4]triazolo[4,3-a][1,4]diazepine-6,4-diyl))bis(N-ethylacetamide), reference compound], the “change in amount of BRD2 protein (band in Western blotting, FIG. 1)” value (BRD2) was “the band was not faint compared with that of control”, the “change in amount of BRD3 protein (band in Western blotting, FIG. 1)” value (BRD3) was “the band was not faint compared with that of control” and the “change in amount of BRD4 protein (band in Western blotting, FIG. 1)” value (BRD4) was “the band was not faint compared with that of control”.
